From PubChem BioAssay AID1259407 (Chemical Carcinogenesis Research Information System (CCRIS), 2018)
Activity calls are given as the source filed them. The rule behind the calls is not given here.

Tested on: CCRIS mutagenicity, Ames/micronucleus/aberration tests
Assay: CCRIS mutagenicity studies
Details: Test System: AMES SALMONELLA TYPHIMURIUM
[1] = Strain/Indicator: TA98, Metabolic Activation: HAMSTER, LIVER, S-9, AROCLOR 1254 (10%), Method: PREINCUBATION
[2] = Strain/Indicator: TA98, Metabolic Activation: NONE, Method: PREINCUBATION
[3] = Strain/Indicator: TA98, Metabolic Activation: RAT, LIVER, S-9, AROCLOR 1254 (10%), Method: PREINCUBATION
[4] = Strain/Indicator: TA100, Metabolic Activation: HAMSTER, LIVER, S-9, AROCLOR 1254 (10%), Method: PREINCUBATION
[5] = Strain/Indicator: TA100, Metabolic Activation: NONE, Method: PREINCUBATION
[6] = Strain/Indicator: TA100, Metabolic Activation: RAT, LIVER, S-9, AROCLOR 1254 (10%), Method: PREINCUBATION
[7] = Strain/Indicator: TA1535, Metabolic Activation: HAMSTER, LIVER, S-9, AROCLOR 1254 (10%), Method: PREINCUBATION
[8] = Strain/Indicator: TA1535, Metabolic Activation: NONE, Method: PREINCUBATION
[9] = Strain/Indicator: TA1535, Metabolic Activation: RAT, LIVER, S-9, AROCLOR 1254 (10%), Method: PREINCUBATION
[10] = Strain/Indicator: TA1537, Metabolic Activation: NONE, Method: PREINCUBATION

Measured: mutagenic call

CC(CC(=O)O)C(=O)O (configuration not stated)
inactive: Strain/Indicator: TA97, Metabolic Activation: HAMSTER, LIVER, S-9, AROCLOR 1254 (10%), Method: PREINCUBATION inactive; negative | Strain/Indicator: TA97, Metabolic Activation: HAMSTER, LIVER, S-9, AROCLOR 1254 (30%), Method: PREINCUBATION inactive; negative | Strain/Indicator: TA97, Metabolic Activation: NONE, Method: PREINCUBATION inactive; negative | Strain/Indicator: TA97, Metabolic Activation: RAT, LIVER, S-9, AROCLOR 1254 (10%), Method: PREINCUBATION inactive; negative | Strain/Indicator: TA97, Metabolic Activation: RAT, LIVER, S-9, AROCLOR 1254 (30%), Method: PREINCUBATION inactive; negative | [1] inactive; negative | Strain/Indicator: TA98, Metabolic Activation: HAMSTER, LIVER, S-9, AROCLOR 1254 (30%), Method: PREINCUBATION inactive; negative | [2] inactive; negative | [3] inactive; negative | Strain/Indicator: TA98, Metabolic Activation: RAT, LIVER, S-9, AROCLOR 1254 (30%), Method: PREINCUBATION inactive; negative | [4] inactive; negative | Strain/Indicator: TA100, Metabolic Activation: HAMSTER, LIVER, S-9, AROCLOR 1254 (30%), Method: PREINCUBATION inactive; negative | [5] inactive; negative | [6] inactive; negative | Strain/Indicator: TA100, Metabolic Activation: RAT, LIVER, S-9, AROCLOR 1254 (30%), Method: PREINCUBATION inactive; negative | [7] inactive; negative | Strain/Indicator: TA1535, Metabolic Activation: HAMSTER, LIVER, S-9, AROCLOR 1254 (30%), Method: PREINCUBATION inactive; negative | [8] inactive; negative | [9] inactive; negative | Strain/Indicator: TA1535, Metabolic Activation: RAT, LIVER, S-9, AROCLOR 1254 (30%), Method: PREINCUBATION inactive; negative | Strain/Indicator: TA1537, Metabolic Activation: HAMSTER, LIVER, S-9, AROCLOR 1254 (30%), Method: PREINCUBATION inactive; negative | [10] inactive; negative | Strain/Indicator: TA1537, Metabolic Activation: RAT, LIVER, S-9, AROCLOR 1254 (30%), Method: PREINCUBATION inactive; negative

CCCCC(CC)COC(=O)c1ccccc1C(=O)O (configuration not stated)
inactive: Strain/Indicator: TA97, Metabolic Activation: NONE, Method: STANDARD PLATE inactive; negative | Strain/Indicator: TA97, Metabolic Activation: RAT, LIVER, S-9, AROCLOR 1254, Method: STANDARD PLATE inactive; negative | Strain/Indicator: TA97, Metabolic Activation: RAT, LIVER, S-9, DI(2-ETHYLHEXYL)PHTHALATE, Method: STANDARD PLATE inactive; negative | [1] inactive; negative | [2] inactive; negative | Strain/Indicator: TA98, Metabolic Activation: NONE, Method: STANDARD PLATE inactive; negative | [3] inactive; negative | Strain/Indicator: TA98, Metabolic Activation: RAT, LIVER, S-9, AROCLOR 1254, Method: STANDARD PLATE inactive; negative | Strain/Indicator: TA98, Metabolic Activation: RAT, LIVER, S-9, DI(2-ETHYLHEXYL)PHTHALATE, Method: STANDARD PLATE inactive; negative | [4] inactive; negative | [5] inactive; negative | Strain/Indicator: TA100, Metabolic Activation: NONE, Method: STANDARD PLATE inactive; negative | [6] inactive; negative | Strain/Indicator: TA100, Metabolic Activation: RAT, LIVER, S-9, AROCLOR 1254, Method: STANDARD PLATE inactive; negative | Strain/Indicator: TA100, Metabolic Activation: RAT, LIVER, S-9, DI(2-ETHYLHEXYL)PHTHALATE, Method: STANDARD PLATE inactive; negative | Strain/Indicator: TA102, Metabolic Activation: NONE, Method: STANDARD PLATE inactive; negative | Strain/Indicator: TA102, Metabolic Activation: RAT, LIVER, S-9, AROCLOR 1254, Method: STANDARD PLATE inactive; negative | Strain/Indicator: TA102, Metabolic Activation: RAT, LIVER, S-9, DI(2-ETHYLHEXYL)PHTHALATE, Method: STANDARD PLATE inactive; negative | [7] inactive; negative | [8] inactive; negative | [9] inactive; negative | Strain/Indicator: TA1537, Metabolic Activation: HAMSTER, LIVER, S-9, AROCLOR 1254 (10%), Method: PREINCUBATION inactive; negative | [10] inactive; negative | Strain/Indicator: TA1537, Metabolic Activation: RAT, LIVER, S-9, AROCLOR 1254 (10%), Method: PREINCUBATION inactive; negative
